Laboratory results reported in patent publication US8012748B2, “Peripheral nervous system specific sodium channel nucleic acids” (The Research Foundation of State University of New York, priority 1994, dated 2011).

Legend:
DRG sodium channel = conditions: cited from earlier work
[1] = target: T1, PNS SCP (PN1 sodium channel) in PK1-4 cells (Rattus norvegicus, UniProt O08562); experiment: (14C) guanidinium flux assay in cells expressing a PNS SCP; assay type: cell-based
T1 construct: PKI-4 cells express a PNS SCP(PN1) without NGF treatment; endogenous in cells
T1 sequence (O08562 whole entry): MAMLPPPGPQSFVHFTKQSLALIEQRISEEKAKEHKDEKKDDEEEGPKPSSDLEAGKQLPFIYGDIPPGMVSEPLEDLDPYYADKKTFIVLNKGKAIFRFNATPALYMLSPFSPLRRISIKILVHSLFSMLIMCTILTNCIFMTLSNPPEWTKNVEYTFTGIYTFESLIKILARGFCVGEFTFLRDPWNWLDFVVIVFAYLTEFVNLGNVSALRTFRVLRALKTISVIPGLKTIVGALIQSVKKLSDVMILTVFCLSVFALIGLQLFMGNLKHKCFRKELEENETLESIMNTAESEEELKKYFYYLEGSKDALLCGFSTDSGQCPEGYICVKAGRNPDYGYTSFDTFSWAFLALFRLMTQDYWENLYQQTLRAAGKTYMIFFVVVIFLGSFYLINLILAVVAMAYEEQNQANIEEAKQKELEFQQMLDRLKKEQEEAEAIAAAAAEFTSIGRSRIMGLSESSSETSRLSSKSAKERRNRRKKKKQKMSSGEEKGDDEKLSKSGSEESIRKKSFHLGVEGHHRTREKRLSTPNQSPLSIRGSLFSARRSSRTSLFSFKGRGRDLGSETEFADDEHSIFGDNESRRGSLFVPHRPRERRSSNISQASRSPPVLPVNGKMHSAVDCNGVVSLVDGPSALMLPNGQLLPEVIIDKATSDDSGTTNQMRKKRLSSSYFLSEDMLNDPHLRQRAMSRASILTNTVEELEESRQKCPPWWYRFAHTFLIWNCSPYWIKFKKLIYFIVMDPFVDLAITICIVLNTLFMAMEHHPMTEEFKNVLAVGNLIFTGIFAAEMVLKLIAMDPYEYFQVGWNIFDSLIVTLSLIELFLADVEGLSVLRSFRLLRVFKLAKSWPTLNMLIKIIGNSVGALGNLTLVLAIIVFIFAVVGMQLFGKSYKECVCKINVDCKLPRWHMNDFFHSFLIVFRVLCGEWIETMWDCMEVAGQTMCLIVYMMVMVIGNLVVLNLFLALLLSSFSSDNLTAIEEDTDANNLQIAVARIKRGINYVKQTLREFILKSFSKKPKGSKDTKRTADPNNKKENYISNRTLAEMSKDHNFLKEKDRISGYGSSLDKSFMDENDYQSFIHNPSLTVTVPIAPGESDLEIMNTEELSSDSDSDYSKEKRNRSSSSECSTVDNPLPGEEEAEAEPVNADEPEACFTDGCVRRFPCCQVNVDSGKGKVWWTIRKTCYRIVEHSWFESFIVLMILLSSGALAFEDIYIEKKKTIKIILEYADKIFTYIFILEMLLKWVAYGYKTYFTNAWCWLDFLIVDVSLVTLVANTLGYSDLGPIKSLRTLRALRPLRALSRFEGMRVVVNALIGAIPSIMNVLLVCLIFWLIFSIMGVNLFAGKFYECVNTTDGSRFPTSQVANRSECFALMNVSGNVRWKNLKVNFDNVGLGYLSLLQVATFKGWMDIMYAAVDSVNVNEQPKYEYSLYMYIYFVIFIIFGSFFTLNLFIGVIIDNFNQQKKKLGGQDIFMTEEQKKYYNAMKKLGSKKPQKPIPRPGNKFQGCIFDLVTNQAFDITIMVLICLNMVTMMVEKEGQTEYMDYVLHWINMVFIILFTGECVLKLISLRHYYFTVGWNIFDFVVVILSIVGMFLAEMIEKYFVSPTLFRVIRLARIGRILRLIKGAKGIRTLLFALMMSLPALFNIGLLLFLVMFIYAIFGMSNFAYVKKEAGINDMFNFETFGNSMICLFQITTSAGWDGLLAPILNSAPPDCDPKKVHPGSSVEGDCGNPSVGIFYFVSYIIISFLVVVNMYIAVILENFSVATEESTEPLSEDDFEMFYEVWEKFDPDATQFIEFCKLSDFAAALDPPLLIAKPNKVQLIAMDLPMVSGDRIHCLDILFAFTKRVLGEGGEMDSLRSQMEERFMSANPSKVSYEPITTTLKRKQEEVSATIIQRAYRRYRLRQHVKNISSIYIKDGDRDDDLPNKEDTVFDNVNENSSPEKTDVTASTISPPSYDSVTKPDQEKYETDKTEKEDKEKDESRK

Row | Structure (SMILES) | kD for TTX of the DRG channel relative to the kD of sodium channels in skeletal muscle or heart (DRG sodium channel) | inhibition of sodium channel activity of at least one PNS SCP ([1]; cell lines expressing at least one PNS SCP (PC12, PK1-4 and other isolated or recombinant cells)) | IC50 ([1]; guanidinium flux assay, PK1-4 cells, read-out: for inhibition of sodium channel activity (converted)) [nM]
1 | NC1=N[C@H](O)[C@H]2[C@H]3O[C@]4(O)O[C@@H]([C@@H](O)[C@@]2(N1)[C@@H]4O)[C@]3(O)CO [TTX, tetrodotoxin] | approximately tenfold higher | – | –
2 | Cc1cccc(C)c1NC(=O)CN1CCN(CCCC(c2ccc(F)cc2)c2ccc(F)cc2)CC1 [lidoflazine] | – | found to inhibit sodium channel activity | 309
